Data as given in paper PMC7352571, “New Anti-Cancer Strategy to Suppress Colorectal Cancer Growth Through Inhibition of ATG4B and Lysosome Function” (Cancers, 2020).

How the values were obtained:
caspase-3 = molecular target: T1, caspase-3 (Homo sapiens, UniProt P42574); assay: caspase-3 activity assay (Ac-DEVE-AFC cleavage in lysate of staurosporine-treated HeLa cells); assay type: biochemical; details: even at a concentration of 50 µM
T1 construct: endogenous in cells; host or cells: HeLa (staurosporine-treated, whole cell lysate)
Method: . (B) Predicted binding model of compound XOS00163, XOS00201, and XOS00207 bind to ATG4B (PDB ID: 2CY7) pocket. […] . […] . HeLa cells were treated with 1 µM of staurosporine (SP) for 12 h to induce cell apoptosis. Then, 2 µg of the whole cell lysate were mixed with indicated compounds at 37° for 30 min, Ac-DEVE-AFC (25 µM) were then added to a volume of 50 µL, and the emission of 505 nm for AFC was recorded. […] |

[1] = system: LC3B and LAMP1 in HeLa cells; assay: immunostaining, colocalization of LC3B and LAMP1; assay type: cell-based; details: 10 µM, 6 h
Method: Figure 4 163N increases the accumulation of autolysosomes. (A) HEK293A cells expressing green fluorescent protein (GFP)-red fluorescent protein (RFP)-LC3 were treated with 163N (10 µM), rapamycin (Rap) (1 µM) or Baf (0.5 µM) for 6 h, then the colocalization of GFP and RFP puncta was detected. […] The colocalization of LC3B and LAMP1 was measured. […] Red arrows indicate normal autolysosome structures. (D) ATG4BKO HeLa cells expressing GFP-LC3[G120] or full length GFP-LC3 were treated with Rap (1 µM), 163N (10 µM), or CQ (40 µM) for 6 h, then the distribution of GFP-LC3 was examined. And the number of GFP-LC3 dots were quantified.
Immunostaining assay was performed as described previously. Cells were fixed in 4% paraformaldehyde for 15–20 min followed by permeabilization with 0.1% Triton X-100 for another 15 min. Then, PBS containing 5% bovine serum albumin was used for blocking. Primary antibodies (1:150) was used at 4° for one night and then secondary antibodies (1:500) were applied at room temperature for 1 h. EVOS FL Auto (Life Technologies) was used to get the fluorescence images. At least three optical fields with at least 100 cells were analyzed for quantification.

LC3-II in HCT116 cells = assay: western blot for LC3 conversion, HCT116; details: 1, 5, 10, 20 µM for 6 h; 10 µM time course
Method: The ratio of LC3B-II/TUBA was calculated using ImageJ software. […] The ratio of LC3B-II/TUBA was calculated using ImageJ software. […] Data are presented as mean ± SEM from three individual experiments. ** p < 0.01, *** p <0.001, ns, not significant.
20–30 µg of whole cell lysates were separated by SDS-PAGE to avoid saturation and transferred to PVDF membranes (Millipore, ISEQ00010, Burlington, MA, USA). After blocking, the membrane was incubated with primary antibodies and secondary antibodies. Specific proteins were detected using enhanced chemiluminescence developing agent (Millipore, WBULS0500). Images were taken using Kodak Image Station 4000 (Carestream Health, Rochester, NY, USA).

A549 cells = assay: CCK-8 cell viability assay, A549; assay type: cell-based; details: Homo sapiens, CCK-8 assay, 48 h
Method: (§1) Cells were seeded and incubated overnight in 96-well plates at a density of 5 × 10^3 cells/well. […] A total of 10 µL CCK-8 were added to each well for additional 1 h and cell viability was measured by CCK-8 assay. Absorbance was measured at 450 nm. The IC50 values were calculated by GraphPad Prism 7 (GraphPad Software Inc., San Diego, CA, USA).

HL60 cells = assay: CCK-8 cell viability assay, HL60; assay type: cell-based; details: Homo sapiens, HL-60; CCK-8 assay
Method: as §1

HCT116 cells = assay: CCK-8 cell viability assay, HCT116; assay type: cell-based, Human
Method: as §1

[2] = system: proteolytic activity of lysosomes in HeLa cells; assay: DQ-BSA Red assay; assay type: cell-based; details: 6 h, 163N 5 or 10 µM, Baf 0.5 µM, E64D 25 µM plus pepstatin A 50 µM
Method: Figure 5 163N causes lysosome dysfunction. […] . (C) HeLa cells were treated with or without 163N (10 µM) for 6 h, followed by immunostaining using cathepsin B and LAMP1 antibody. The colocalization of cathepsin B and LAMP1 was measured.
DQ-BSA Red assay: cells were incubated with 10 µg/mL DQ-BSA Red in EBSS medium at 37° for 1.5 h, and then new medium with or without the indicated compounds were added for another 4 or 6 h, and then fluorescence microscopy was used for detecting the intensity of red fluorescent.
Supplementary Materials: New Anti-Cancer Strategy
to Suppress Colorectal Cancer Growth Through
Inhibition of ATG4B and Lysosome Function
Figure S1. Compounds with a 6-methylpyrimidine-2,4-diamine structure could cause lysosome
inhibition. (A) The structure of the representative lysosome inhibitors. (B) GFP-LC3B HeLa cells were
treated with Baf (0.5 µM) or 5 µM of different lysosome inhibitors for 2 h, then LysoTracker Red (LTR,
25 ng/mL) was used and the relative LTR fluorescent intensity was measured. (C) HeLa cells were
firstly treated with 10 µg/mL DQ-BSA for 1.5 h, and then treated with Rap (1 µM), Baf (0.5 µM), E64D
(25 µM) plus pepstatin A (50 µM), or 5 µM of different lysosome inhibitors for 4 h.
Cancers 2020, 12, x; www.mdpi.com/journal/ cancers […]

HeLa cells = assay: CCK-8 cell viability assay, HeLa; assay type: cell-based
Method: as §1

T98G cells = assay: CCK-8 cell viability assay, T98G; assay type: cell-based; details: Homo sapiens, CCK-8 assay, 48 h
Method: as §1

HCT116 xenograft = assay: HCT116 mouse xenograft model; assay type: in vivo, mice
Method: Figure 7 163N inhibits tumor growth in a HCT116 mouse xenograft model. (A) HCT116 cells ([…]) were injected subcutaneously into the right flank of the immunodeficient nu/nu female mice. Seven days after tumor cell implantation, mice with palpable tumors were divided randomly into two groups and injected intraperitoneal on Monday, Wednesday, and Friday with either corn oil vehicle or 163N (50 mg/kg). Tumor volumes were calculated by the length and width measured by Vernier calipers every 2 d. (B) Body weight changes of mice during 28 d of exposure. (C) Tumor tissues were sectioned and subjected to H&E staining and immunohistochemistry for evaluating histological morphology, and expression of LC3B and SQSTM1. Scale bar: 50 µm. (D) TEM was used to detect the ultrastructure of the representative tumor tissues. Red arrows represent normal autolysosome structures. Data are presented as mean ± SEM. ** p < 0.01 vs VC.
The animal experimental procedures were approved by the Research Ethics Committee of Sun Yat-sen University (Guangzhou, China), ethic code: SYSU-IACUC-2018-000134. Four-week-old immunodeficient mice (nu/nu, female) were raised in a pathogen-free environment in the Experimental Animal Center of Sun Yat-sen University. Human colorectal cancer HCT116 cells (3 × 10^6) were injected subcutaneously into the right flank of the animals. Seven days after tumor cell implantation, mice with palpable tumors were divided randomly into two groups and injected intraperitoneal on Monday, Wednesday, and Friday of the following treatments: (1) vehicle control (corn oil); (2) 163N (50 mg/kg body weight) dissolved in corn oil. Tumors were measured using calipers and the tumor volume (mm^3) was calculated as follows: V = (L × W2)/2, L and W represents tumor length and width, respectively. At the end of the experiment (5 weeks after tumor implantation), the mice were given 200 µL of pentobarbital sodium (1%) by i.p. 30 min before sacrifice, tumors and organs were collected and weighed.

T1 sequence (P42574 29-175 limits assumed): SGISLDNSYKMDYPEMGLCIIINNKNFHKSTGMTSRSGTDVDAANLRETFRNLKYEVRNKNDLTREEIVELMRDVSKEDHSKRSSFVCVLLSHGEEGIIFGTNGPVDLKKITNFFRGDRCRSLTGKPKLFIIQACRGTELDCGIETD
T1 sequence (P42574 176-277 limits assumed): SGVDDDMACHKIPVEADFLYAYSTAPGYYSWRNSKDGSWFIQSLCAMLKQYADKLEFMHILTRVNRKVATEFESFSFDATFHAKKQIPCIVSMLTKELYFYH

COc1ccc(Nc2cc(C)nc(Nc3ccc(-c4cc5ccccc5o4)cc3)n2)cc1 [Compound 163N]
inhibition effect on caspase-3 activity (caspase-3): no inhibition effect
LC3 puncta and co-localization with LAMP1 [1]: remarkable increase of LC3 puncta, which were well co-localized with LAMP1
LC3-II level, HCT116 (LC3-II in HCT116 cells): dose- and time-dependent accumulation of LC3-II
IC50 (A549 cells): 7.68 µM
IC50 (HL60 cells): 12.6 µM
cytotoxicity relative to XOS00163, XOS00201 and XOS00207, HCT116 (HCT116 cells; HCT116 cells): about five times higher cytotoxicity
IC50 (HCT116 cells; Homo sapiens, HCT-116, CCK-8 assay, 48 h): 5.76 µM
dequenching of DQ-BSA (proteolytic activity of lysosome) [2]: nearly no dequenching of DQ-BSA
cytotoxicity relative to XOS00163, XOS00201 and XOS00207, HeLa (HeLa cells; HeLa cells): about five times higher cytotoxicity
IC50 (HeLa cells; Homo sapiens, HeLa, CCK-8 assay, 48 h): 7.06 µM
IC50 (T98G cells): 7.23 µM
LC3B and SQSTM1 in tumor tissue by immunohistochemistry (HCT116 xenograft; 50 mg/kg intraperitoneal): increased levels of LC3B and SQSTM1
tumor growth (HCT116 xenograft; 50 mg/kg intraperitoneal Mon/Wed/Fri, nu/nu female mice, vs vehicle): less prominent
body weight (HCT116 xenograft; 50 mg/kg intraperitoneal, 28 d, vs vehicle): no significant changes in body weight
weight index and morphology of heart, liver, spleen, lung, kidney (HCT116 xenograft; 50 mg/kg intraperitoneal, vs vehicle): no significant changes in weight index
